Each molecule was assayed against human kinase Mps-1 (Homo sapiens (Human), UniProt P33981) (assay: Mps-1 Kinase Assay (TR-FRET)). Details: N-terminally GST-tagged human full length recombinant Mps-1; 10 μM ATP; 1 μM peptide substrate; 60 min at 22° C.; read-out: Mps1 IC50.
Type: biochemical
Protocol: The human kinase Mps-1 phosphorylates a biotinylated substrate peptide. Detection of the phosphorylated product is achieved by time-resolved fluorescence resonance energy transfer (TR-FRET) from Europium-labelled anti-phospho-Serine/Threonine antibody as donor to streptavidin labelled with cross-linked allophycocyanin (SA-XLent) as acceptor. Compounds are tested for their inhibition of the kinase activity.
N-terminally GST-tagged human full length recombinant Mps-1 kinase (purchased from Invitrogen, Karslruhe, Germany, cat. no PV4071) was used. As substrate for the kinase reaction a biotinylated peptide of the amino-acid sequence […] (C-terminus in amide form, purchased from Biosynthan GmbH, Berlin) was used.
The concentration of Mps-1 in the assay was adjusted to the activity of the enzyme lot and was chosen appropriate to have the assay in the linear range, typical enzyme concentrations were in the range of about 1 nM (final conc. in the 5 μl assay volume).
The resulting mixture was incubated 1 h at 22° C. to allow the binding of the phosphorylated peptide to the anti-phospho(Ser/Thr)-Europium-antibody. Subsequently the amount of phosphorylated substrate was evaluated by measurement of the resonance energy transfer from the Europium-labelled anti-phospho(Ser/Thr) antibody to the Streptavidin-XLent.

Chain of human kinase Mps-1 (P33981 whole entry): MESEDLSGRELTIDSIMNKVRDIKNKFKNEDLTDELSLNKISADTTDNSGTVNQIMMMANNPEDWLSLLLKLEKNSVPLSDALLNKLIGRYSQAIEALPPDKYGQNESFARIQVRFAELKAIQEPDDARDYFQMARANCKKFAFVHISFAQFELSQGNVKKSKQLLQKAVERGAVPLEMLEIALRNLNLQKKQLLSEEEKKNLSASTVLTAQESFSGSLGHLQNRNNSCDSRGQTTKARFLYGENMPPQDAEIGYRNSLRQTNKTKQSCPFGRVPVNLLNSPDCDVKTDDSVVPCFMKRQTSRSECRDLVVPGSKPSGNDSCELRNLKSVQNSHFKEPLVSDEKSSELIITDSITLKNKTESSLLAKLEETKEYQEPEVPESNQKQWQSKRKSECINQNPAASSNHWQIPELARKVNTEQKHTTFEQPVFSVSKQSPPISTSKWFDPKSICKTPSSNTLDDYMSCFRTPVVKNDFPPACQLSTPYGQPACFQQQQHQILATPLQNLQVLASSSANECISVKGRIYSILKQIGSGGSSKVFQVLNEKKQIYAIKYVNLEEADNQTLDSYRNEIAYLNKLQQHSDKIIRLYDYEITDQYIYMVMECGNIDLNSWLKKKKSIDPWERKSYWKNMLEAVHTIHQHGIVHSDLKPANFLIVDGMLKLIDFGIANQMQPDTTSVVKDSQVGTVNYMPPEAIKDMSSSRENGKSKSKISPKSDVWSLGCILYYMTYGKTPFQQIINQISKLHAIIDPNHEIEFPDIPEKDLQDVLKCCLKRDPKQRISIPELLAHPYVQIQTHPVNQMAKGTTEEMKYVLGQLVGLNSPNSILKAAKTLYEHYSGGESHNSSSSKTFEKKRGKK

In order of rising IC50:
1. CC(C)(C)CCS(=O)(=O)c1nc(-c2ccccc2)cn2c(-c3ccc(C(=O)NC4CC4)cc3)cnc12 [Example 11B, N-Cyclopropyl-4-{8-[(3,3-dimethylbutyl)sulfonyl]-6-phenylimidazo[1,2-a]pyrazin-3-yl}benzamide]  4.3 nM
2. CS(=O)(=NC(=O)C(F)(F)F)c1nc(-c2ccccc2)cn2c(-c3ccc(C(=O)NC4CC4)cc3)cnc12 (racemic) [Example 15, (RS) N-cyclopropyl-4-{8-[S-methyl-N-(trifluoroacetyl)sulfonimidoyl]-6-phenylimidazo[1,2-a]pyrazin-3-yl}benzamide]  5.2 nM
3. CS(=O)(=O)c1nc(-c2ccccc2)cn2c(-c3ccc(C(=O)NC4CC4)cc3)cnc12 (racemic) [Example 3A, N-Cyclopropyl-4-[8-(methylsulfonyl)-6-phenylimidazo[1,2-a]pyrazin-3-yl]benzamide]  6 nM
4. O=C(NC1CC1)c1ccc(-c2cnc3c([S+]([O-])CC(F)(F)F)nc(-c4ccccc4)cn23)cc1 (racemic) [Example 26A, (RS) N-cyclopropyl-4-{6-phenyl-8-[(2,2,2-trifluoroethyl)sulfinyl]imidazo[1,2-a]pyrazin-3-yl}benzamide]  6.2 nM
5. CC(C)CS(=O)(=O)c1nc(-c2ccccc2)cn2c(-c3ccc(C(=O)NC4CC4)cc3)cnc12 [Example 22B, N-cyclopropyl-4-[8-(isobutylsulfonyl)-6-phenylimidazo[1,2-a]pyrazin-3-yl]benzamide]  6.4 nM
6. CC(C)CCS(=O)(=O)c1nc(-c2ccccc2)cn2c(-c3ccc(C(=O)NC4CC4)cc3)cnc12 [Example 24B, N-cyclopropyl-4-{8-[(3-methylbutyl)sulfonyl]-6-phenylimidazo[1,2-a]pyrazin-3-yl}benzamide]  6.5 nM
7. O=C(NC1CC1)c1ccc(-c2cnc3c(S(=O)(=O)Cc4ccco4)nc(-c4ccccc4)cn23)cc1 [Example 28B, N-cyclopropyl-4-{8-[(2-furylmethyl)sulfonyl]-6-phenylimidazo[1,2-a]pyrazin-3-yl}benzamide]  7.1 nM
8. CCCCCS(=O)(=O)c1nc(-c2ccccc2)cn2c(-c3ccc(C(=O)NC4CC4)cc3)cnc12 [Example 18B, N-cyclopropyl-4-[8-(pentylsulfonyl)-6-phenylimidazo[1,2-a]pyrazin-3-yl]benzamide]  7.5 nM
9. CCS(=O)(=O)c1nc(-c2ccccc2)cn2c(-c3ccc(C(=O)NC4CC4)cc3)cnc12 [Example 5B, N-Cyclopropyl-4-[8-(ethylsulfonyl)-6-phenylimidazo[1,2-a]pyrazin-3-yl]benzamide]  7.7 nM
10. O=C(NC1CC1)c1ccc(-c2cnc3c(SCC4CCCO4)nc(-c4ccccc4)cn23)cc1 (racemic) [Example 12, (RS) N-Cyclopropyl-4-{6-phenyl-8-[(tetrahydrofuran-2-ylmethyl)sulfanyl]imidazo[1,2-a]pyrazin-3-yl}benzamide]  8 nM
11. O=C(NC1CC1)c1ccc(-c2cnc3c(S(=O)(=O)CC(F)(F)F)nc(-c4ccccc4)cn23)cc1 [Example 26B, N-cyclopropyl-4-{6-phenyl-8-[(2,2,2-trifluoroethyl)sulfonyl]imidazo[1,2-a]pyrazin-3-yl}benzamide]  8.1 nM
12. C[S+]([O-])c1nc(-c2ccccc2)cn2c(-c3ccc(C(=O)NC4CC4)cc3)cnc12 (racemic) [Example 3B, (RS)—N-cyclopropyl-4-[8-(methylsulfinyl)-6-phenylimidazo[1,2-a]pyrazin-3-yl]benzamide]  8.9 nM
13. CCCS(=O)(=O)c1nc(-c2ccccc2)cn2c(-c3ccc(C(=O)NC4CC4)cc3)cnc12 [Example 7B, N-Cyclopropyl-4-[6-phenyl-8-(propylsulfonyl)imidazo[1,2-a]pyrazin-3-yl]benzamide]  10.1 nM
14. CCCSc1nc(-c2ccccc2)cn2c(-c3ccc(C(=O)NC4CC4)cc3)cnc12 [Example 6, N-Cyclopropyl-4-[6-phenyl-8-(propylsulfanyl)imidazo[1,2-a]pyrazin-3-yl]benzamide]  11 nM
15. CC(C)C[S+]([O-])c1nc(-c2ccccc2)cn2c(-c3ccc(C(=O)NC4CC4)cc3)cnc12 (racemic) [Example 22A, (RS) N-cyclopropyl-4-[8-(isobutylsulfinyl)-6-phenylimidazo[1,2-a]pyrazin-3-yl]benzamide]  12.7 nM
16. CC(C)CSc1nc(-c2ccccc2)cn2c(-c3ccc(C(=O)NC4CC4)cc3)cnc12 [Example 21, N-cyclopropyl-4-[8-(isobutylsulfanyl)-6-phenylimidazo[1,2-a]pyrazin-3-yl]benzamide]  13.2 nM
17. CC(C)S(=O)(=O)c1nc(-c2ccccc2)cn2c(-c3ccc(C(=O)NC4CC4)cc3)cnc12 [Example 20B, N-cyclopropyl-4-[8-(isopropylsulfonyl)-6-phenylimidazo[1,2-a]pyrazin-3-yl]benzamide]  13.9 nM
18. CCCCS(=O)(=O)c1nc(-c2ccccc2)cn2c(-c3ccc(C(=O)NC4CC4)cc3)cnc12 [Example 9B, 4-[8-(Butylsulfonyl)-6-phenylimidazo[1,2-a]pyrazin-3-yl]-N-cyclopropylbenzamide]  14 nM
19. CC(C)CC[S+]([O-])c1nc(-c2ccccc2)cn2c(-c3ccc(C(=O)NC4CC4)cc3)cnc12 (racemic) [Example 24A, (RS) N-cyclopropyl-4-{8-[(3-methylbutyl)sulfinyl]-6-phenylimidazo[1,2-a]pyrazin-3-yl}benzamide]  14.5 nM
20. CC(=O)NCCSc1nc(-c2ccccc2)cn2c(-c3ccc(C(=O)NC4CC4)cc3)cnc12 [Example 33]  19.9 nM
21. CCC[S+]([O-])c1nc(-c2ccccc2)cn2c(-c3ccc(C(=O)NC4CC4)cc3)cnc12 (racemic) [Example 7A, (RS) N-Cyclopropyl-4-[6-phenyl-8-(propylsulfinyl)imidazo[1,2-a]pyrazin-3-yl]benzamide]  20 nM
22. CCSc1nc(-c2ccccc2)cn2c(-c3ccc(C(=O)NC4CC4)cc3)cnc12 [Example 4, N-Cyclopropyl-4-[8-(ethylsulfanyl)-6-phenylimidazo[1,2-a]pyrazin-3-yl]benzamide]  22.2 nM
23. CC(C)Sc1nc(-c2ccccc2)cn2c(-c3ccc(C(=O)NC4CC4)cc3)cnc12 [Example 19, N-cyclopropyl-4-[8-(isopropylsulfanyl)-6-phenylimidazo[1,2-a]pyrazin-3-yl]benzamide]  22.3 nM
24. CC(C)CCSc1nc(-c2ccccc2)cn2c(-c3ccc(C(=O)NC4CC4)cc3)cnc12 [Example 23, N-cyclopropyl-4-{8-[(3-methylbutyl)sulfanyl]-6-phenylimidazo[1,2-a]pyrazin-3-yl}benzamide]  25.2 nM
25. CCCCSc1nc(-c2ccccc2)cn2c(-c3ccc(C(=O)NC4CC4)cc3)cnc12 [Example 8, 4-[8-(Butylsulfanyl)-6-phenylimidazo[1,2-a]pyrazin-3-yl]-N-cyclopropylbenzamide]  26.3 nM
26. O=C(NC1CC1)c1ccc(-c2cnc3c(SCC(F)(F)F)nc(-c4ccccc4)cn23)cc1 [Example 25, N-cyclopropyl-4-{6-phenyl-8-[(2,2,2-trifluoroethyl)sulfanyl]imidazo[1,2-a]pyrazin-3-yl}benzamide]  26.3 nM
27. O=C(NC1CC1)c1ccc(-c2cnc3c(SCc4ccco4)nc(-c4ccccc4)cn23)cc1 [Example 27, N-cyclopropyl-4-{8-[(2-furylmethyl)sulfanyl]-6-phenylimidazo[1,2-a]pyrazin-3-yl}benzamide]  40.8 nM
28. CC(C)(C)OC(=O)NCCSc1nc(-c2ccccc2)cn2c(-c3ccc(C(=O)NC4CC4)cc3)cnc12 [Example 16, tert-butyl [2-({3-[4-(cyclopropylcarbamoyl)phenyl]-6-phenylimidazo[1,2-a]pyrazin-8-yl}sulfanyl)ethyl]carbamate]  67.6 nM
29. CCCCCSc1nc(-c2ccccc2)cn2c(-c3ccc(C(=O)NC4CC4)cc3)cnc12 [Example 17, N-cyclopropyl-4-[8-(pentylsulfanyl)-6-phenylimidazo[1,2-a]pyrazin-3-yl]benzamide]  79.8 nM
30. CC(C)(C)CCSc1nc(-c2ccccc2)cn2c(-c3ccc(C(=O)NC4CC4)cc3)cnc12 [Example 10, N-Cyclopropyl-4-{8-[(3,3-dimethylbutyl)sulfanyl]-6-phenylimidazo[1,2-a]pyrazin-3-yl}benzamide]  85.1 nM
31. CSc1nc(-c2ccncc2)cn2c(-c3ccc(-c4cnc(C5CC5)[nH]4)cc3)cnc12 [Example 31, 3-[4-(2-cyclopropyl-1H-imidazol-5-yl)phenyl]-8-(methylsulfanyl)-6-(pyridin-4-yl)imidazo[1,2-a]pyrazine]  125 nM
32. CSc1nc(-c2ccccc2)cn2c(-c3ccc(-c4cnc(C5CC5)[nH]4)cc3)cnc12 [Example 29, 3-[4-(2-cyclopropyl-1H-imidazol-5-yl)phenyl]-8-(methylsulfanyl)-6-phenylimidazo[1,2-a]pyrazine]  544 nM
33. CSc1nc(Br)cn2c(-c3ccc(C(=O)NC4CC4)cc3)cnc12 [Example 1, 4-[6-Bromo-8-(methylsulfanyl)imidazo[1,2-a]pyrazin-3-yl]-N-cyclopropylbenzamide]  607 nM
34. C=Cc1ccc(-c2cn3c(-c4ccc(-c5cnc(C6CC6)[nH]5)cc4)cnc3c(SC)n2)cc1 [Example 30, 3-[4-(2-cyclopropyl-1H-imidazol-5-yl)phenyl]-8-(methylsulfanyl)-6-(4-vinylphenyl)imidazo[1,2-a]pyrazine]  3100 nM

Source: patent publication US9468642B2, “Imidazopyrazines” (BAYER INTELLECTUAL PROPERTY GMBH, priority 2011, dated 2016)
